In patent US8247211B2, “Glycopeptide antibiotics” (American Cyanamid Company, priority 2001, dated 2012):
In brackets after ≈: the same amount, converted by molar mass.

Tests used:
Assay in all cases: In vitro antibacterial evaluation: minimum inhibitory concentration (MIC), broth dilution method
Type in all cases: cell-based
Enterococcus sp. = tested on: Enterococcus sp.
Experimental: (§1) The minimum inhibitory concentration (MIC), the lowest concentration of the antibiotic which inhibits growth of the test organism, is determined by the broth dilution method using Muller-Hinton II […] (Baltimore Biological Laboratories) following the recommendations of the National Committee for Clinical Laboratory Standards [Methods for dilution antimicrobial susceptibility tests for bacteria that grow aerobically, approved standard M7-A2, National Committee for Clinical Laboratory Standards, Villanova, Pa].
(§2) An inoculum level of 5×10^5 CFU/mL, and a range of antibiotic concentrations (64-0.06 μg/mL) is used. […] The test organisms include a spectrum of Gram-positive bacteria comprised of Staphylococcus sp., Streptococcus sp. and Enterococcus sp. These organisms include recent clinical isolates that are resistant to methicillin, penicillin and/or vancomycin.

Escherichia coli = tested on: Escherichia coli
Experimental: as §1, §2

Staphylococcus sp. = conditions: for MIC Staphylococcus aureus-SMITH (GC 4543): strain GC 4543; for MIC Staphylococcus haemolyticus (GC 4546): strain GC 4546; for MIC Coagulase Negative Staphylococcus (GC 4547): strain GC 4547; for MIC Coagulase Negative Staphylococcus (GC 4548): strain GC 4548; for MIC Coagulase Negative Staphylococcus (GC 4549): strain GC 4549; for MIC Coagulase Negative Staphylococcus (GC 4551): strain GC 4551; for MIC Coagulase Negative Staphylococcus (ID-3941): strain ID-3941
Experimental: as §1, §2

Streptococcus sp. = tested on: Streptococcus sp.
Experimental: as §1, §2

[1] = broth dilution, 18 hours at 35° C.
[2] = broth dilution, 5×10^5 CFU/mL, 18 hours at 35° C.
[3] = 5×10^5 CFU/mL, 18 hours at 35° C.

MIC Staphylococcus aureus-SMITH (GC 4543) (Staphylococcus sp.; 18 hours at 35° C.) | MIC Staphylococcus aureus-SMITH (GC 4543) (Staphylococcus sp.; [1]) | MIC Coagulase Negative Staphylococcus (GC 4547) (Staphylococcus sp.) | MIC Coagulase Negative Staphylococcus (GC 4547) (Staphylococcus sp.; [1]) | MIC Coagulase Negative Staphylococcus (GC 4548) (Staphylococcus sp.) | MIC Coagulase Negative Staphylococcus (GC 4548) (Staphylococcus sp.; [1]) | MIC Coagulase Negative Staphylococcus (GC 4549) (Staphylococcus sp.) | MIC Coagulase Negative Staphylococcus (GC 4549) (Staphylococcus sp.; [1]) | MIC Coagulase Negative Staphylococcus (GC 4551) (Staphylococcus sp.) | MIC Coagulase Negative Staphylococcus (GC 4551) (Staphylococcus sp.; [1]) | MIC Coagulase Negative Staphylococcus (ID-3941) (Staphylococcus sp.) | MIC Coagulase Negative Staphylococcus (ID-3941) (Staphylococcus sp.; [1]) | MIC Enterococccus avium (GC 4558) (Enterococcus sp.; [2]) | MIC Enterococccus faecalis (ATCC 29212) (Enterococcus sp.; [2]) | MIC Enterococccus faecalis (GC 4552) (Enterococcus sp.; [2]) | MIC Enterococccus faecalis (GC 4553) (Enterococcus sp.; [2]) | MIC Enterococccus faecalis (GC 4554) (Enterococcus sp.; [2]) | MIC Enterococccus faecium (GC 2243) (Enterococcus sp.; [2]) | SMILES | MIC Staphylococcus haemolyticus (GC 4546) (Staphylococcus sp.) | MIC Staphylococcus haemolyticus (GC 4546) (Staphylococcus sp.; [1]) | further results
4 µg/mL (≈ 2.81 µM) | 4 µg/mL (≈ 2.81 µM) | 4 µg/mL (≈ 2.81 µM) | 4 µg/mL (≈ 2.81 µM) | 4 µg/mL (≈ 2.81 µM) | 4 µg/mL (≈ 2.81 µM) | 2 µg/mL (≈ 1.41 µM) | 2 µg/mL (≈ 1.41 µM) | 8 µg/mL (≈ 5.63 µM) | 8 µg/mL (≈ 5.63 µM) | 2 µg/mL (≈ 1.41 µM) | 2 µg/mL (≈ 1.41 µM) |  |  |  |  |  |  | CCCC(CCC)C(=O)OCC1OC(Oc2ccc(CC3NC(=O)C(C(C)c4ccccc4)NC(=O)CNC(=O)C(CO)NC(=O)C(C(O)C4CNC(=N)N4C4OC(CO)C(O)C(O)C4O)NC(=O)C(C(O)C4CNC(=N)N4)NC3=O)cc2)C(O)C(O)C1OC1OC(CO)C(O)C(O)C1O (stereo not drawn) [Example 99b, Cyclo[glycyl-β-methylphenylalanyl-O-(4-O-hexopyranosyl-6-O-(2-propylpentanoyl)hexopyranosyl]tyrosyl-3-(2-iminoimidazolidin-4-yl)seryl-3-(3-hexopyranosyl-2-iminoimidazolidin-4-yl)serylseryl]] | 4 µg/mL (≈ 2.81 µM) | 4 µg/mL (≈ 2.81 µM) | MIC Enterococcus faecalis (ATCC 29212) (Enterococcus sp.; strain ATCC 29212): 16 µg/mL (≈ 11.3 µM); MIC Enterococcus faecalis (GC 2242) (Enterococcus sp.; strain GC 2242): 16 µg/mL (≈ 11.3 µM); MIC Enterococcus faecium (GC 2243) (Enterococcus sp.; strain GC 2243): 16 µg/mL (≈ 11.3 µM); MIC Enterococcus faecalis (GC 4552) (Enterococcus sp.; strain GC 4552): 32 µg/mL (≈ 22.5 µM); MIC Enterococcus faecalis (GC 4553) (Enterococcus sp.; strain GC 4553): 16 µg/mL (≈ 11.3 µM); MIC Enterococcus faecalis (GC 4554) (Enterococcus sp.; strain GC 4554): 32 µg/mL (≈ 22.5 µM); MIC Enterococcus faecium (GC 4556) (Enterococcus sp.; strain GC 4556): 16 µg/mL (≈ 11.3 µM); MIC Enterococcus faecium (GC 4557) (Enterococcus sp.; strain GC 4557): 4 µg/mL (≈ 2.81 µM); MIC Enterococcus avium (GC 4558) (Enterococcus sp.; strain GC 4558): 16 µg/mL (≈ 11.3 µM); MIC Escherichia coli (ATCC 25922) (Escherichia coli; strain ATCC 25922): >64 µg/mL; MIC Staphylococcus aureus (ATCC 29213) (Staphylococcus sp.; [1]): 4 µg/mL (≈ 2.81 µM); MIC Staphylococcus aureus (GC 1131) (Staphylococcus sp.; [1]): 4 µg/mL (≈ 2.81 µM); MIC Staphylococcus aureus (GC 4541) (Staphylococcus sp.; [1]): 4 µg/mL (≈ 2.81 µM); MIC Staphylococcus aureus (GC 4542) (Staphylococcus sp.; [1]): 4 µg/mL (≈ 2.81 µM); MIC Staphylococcus aureus (GC 4544) (Staphylococcus sp.; [1]): 4 µg/mL (≈ 2.81 µM); MIC Staphylococcus aureus (GC 4545) (Staphylococcus sp.; [1]): 4 µg/mL (≈ 2.81 µM); MIC Streptococcus agalactiae (GC 4564) (Streptococcus sp.; strain GC 4564): 2 µg/mL (≈ 1.41 µM); MIC Streptococcus pneumoniae (GC 4565) (Streptococcus sp.; strain GC 4565): <0.5 µg/mL; MIC Streptococcus pyogenes (ID-3187) (Streptococcus sp.; strain ID-3187): 1 µg/mL (≈ 0.703 µM)
4 µg/mL (≈ 2.8 µM) | 4 µg/mL (≈ 2.8 µM) | 2 µg/mL (≈ 1.4 µM) | 2 µg/mL (≈ 1.4 µM) | 2 µg/mL (≈ 1.4 µM) | 2 µg/mL (≈ 1.4 µM) | 1 µg/mL (≈ 0.7 µM) | 1 µg/mL (≈ 0.7 µM) | 8 µg/mL (≈ 5.6 µM) | 8 µg/mL (≈ 5.6 µM) | 1 µg/mL (≈ 0.7 µM) | 1 µg/mL (≈ 0.7 µM) | 32 µg/mL (≈ 22.4 µM) | 32 µg/mL (≈ 22.4 µM) | 64 µg/mL (≈ 44.8 µM) | 32 µg/mL (≈ 22.4 µM) | 64 µg/mL (≈ 44.8 µM) | 32 µg/mL (≈ 22.4 µM) | CC(c1ccccc1)C1NC(=O)CNC(=O)C(CO)NC(=O)C(C(O)C2CNC(=N)N2C2OC(CO)C(O)C(O)C2O)NC(=O)C(C(O)C2CNC(=N)N2)NC(=O)C(Cc2ccc(OC3OC(COC(=O)OCc4ccccc4)C(OC4OC(CO)C(O)C(O)C4O)C(O)C3O)cc2)NC1=O (stereo not drawn) [Example 101, Cyclo[glycyl-β-methylphenylalanyl-O-[4-O-hexopyranosyl-6-O-[(phenylmethoxy)carbonyl]-hexopyranosyl]tyrosyl-3-(2-iminoimidazolidin-4-yl)seryl-3-(3-hexopyranosyl-2-iminoimidazolidin-4-1/1)serylseryl]] | 4 µg/mL (≈ 2.8 µM) | 4 µg/mL (≈ 2.8 µM) | MIC Enterococccus faecium (GC 4556) (Enterococcus sp.; [2]): 32 µg/mL (≈ 22.4 µM); MIC Enterococccus faecium (GC 4557) (Enterococcus sp.; [2]): 2 µg/mL (≈ 1.4 µM); MIC Enterococcus faecalis (GC 2242) (Enterococcus sp.; [2]): 16 µg/mL (≈ 11.2 µM); MIC Escherichia coli (ATCC 25922) (Escherichia coli; [3]): >64 µg/mL; MIC Staphylococcus aureus (ATCC 29213) (Staphylococcus sp.; strain ATCC 29213): 4 µg/mL (≈ 2.8 µM); MIC Staphylococcus aureus (GC 1131) (Staphylococcus sp.; strain GC 1131): 4 µg/mL (≈ 2.8 µM); MIC Staphylococcus aureus (GC 4541) (Staphylococcus sp.; strain GC 4541): 4 µg/mL (≈ 2.8 µM); MIC Staphylococcus aureus (GC 4542) (Staphylococcus sp.; strain GC 4542): 8 µg/mL (≈ 5.6 µM); MIC Staphylococcus aureus (GC 4544) (Staphylococcus sp.; strain GC 4544): 8 µg/mL (≈ 5.6 µM); MIC Staphylococcus aureus (GC 4545) (Staphylococcus sp.; strain GC 4545): 4 µg/mL (≈ 2.8 µM); MIC Streptococcus agalactiae (GC 4564) (Streptococcus sp.; [2]): 2 µg/mL (≈ 1.4 µM); MIC Streptococcus pneumoniae (GC 4565) (Streptococcus sp.; [2]): <0.5 µg/mL; MIC Streptococcus pyogenes (ID-3187) (Streptococcus sp.; [2]): 2 µg/mL (≈ 1.4 µM)
8 µg/mL (≈ 5.6 µM) | 8 µg/mL (≈ 5.6 µM) | 1 µg/mL (≈ 0.7 µM) | 1 µg/mL (≈ 0.7 µM) | 1 µg/mL (≈ 0.7 µM) | 1 µg/mL (≈ 0.7 µM) | 1 µg/mL (≈ 0.7 µM) | 1 µg/mL (≈ 0.7 µM) | 2 µg/mL (≈ 1.4 µM) | 2 µg/mL (≈ 1.4 µM) | 1 µg/mL (≈ 0.7 µM) | 1 µg/mL (≈ 0.7 µM) | 16 µg/mL (≈ 11.2 µM) | 16 µg/mL (≈ 11.2 µM) | 16 µg/mL (≈ 11.2 µM) | 16 µg/mL (≈ 11.2 µM) | 16 µg/mL (≈ 11.2 µM) | 16 µg/mL (≈ 11.2 µM) | CC(c1ccccc1)C1NC(=O)CNC(=O)C(CO)NC(=O)C(C(O)C2CNC(=N)N2C2OC(CO)C(O)C(O)C2O)NC(=O)C(C(O)C2CNC(=N)N2)NC(=O)C(Cc2ccc(OC3OC(CO)C(OC4OC(COC(=O)OCc5ccccc5)C(O)C(O)C4O)C(O)C3O)cc2)NC1=O (stereo not drawn) [Example 101a, Cyclo[glycyl-β-methylphenylalanyl-O-[4-O-[6-O-[(phenylmethoxy)carbonyl]hexopyranosyl]-hexopyranosyl]tyrosyl-3-(2-iminoimidazolidin-4-yl)seryl-3-(3-hexopyranosyl-2-iminoimidazolidin-4-yl)serylseryl]] | 1 µg/mL (≈ 0.7 µM) | 1 µg/mL (≈ 0.7 µM) | MIC Enterococccus faecium (GC 4556) (Enterococcus sp.; [2]): 16 µg/mL (≈ 11.2 µM); MIC Enterococccus faecium (GC 4557) (Enterococcus sp.; [2]): 2 µg/mL (≈ 1.4 µM); MIC Enterococcus faecalis (GC 2242) (Enterococcus sp.; [2]): 8 µg/mL (≈ 5.6 µM); MIC Escherichia coli (ATCC 25922) (Escherichia coli; [3]): 64 µg/mL (≈ 44.8 µM); MIC Staphylococcus aureus (ATCC 29213) (Staphylococcus sp.; strain ATCC 29213): 2 µg/mL (≈ 1.4 µM); MIC Staphylococcus aureus (GC 1131) (Staphylococcus sp.; strain GC 1131): 4 µg/mL (≈ 2.8 µM); MIC Staphylococcus aureus (GC 4541) (Staphylococcus sp.; strain GC 4541): 2 µg/mL (≈ 1.4 µM); MIC Staphylococcus aureus (GC 4542) (Staphylococcus sp.; strain GC 4542): 4 µg/mL (≈ 2.8 µM); MIC Staphylococcus aureus (GC 4544) (Staphylococcus sp.; strain GC 4544): 4 µg/mL (≈ 2.8 µM); MIC Staphylococcus aureus (GC 4545) (Staphylococcus sp.; strain GC 4545): 4 µg/mL (≈ 2.8 µM); MIC Streptococcus agalactiae (GC 4564) (Streptococcus sp.; [2]): 1 µg/mL (≈ 0.7 µM); MIC Streptococcus pneumoniae (GC 4565) (Streptococcus sp.; [2]): <0.5 µg/mL; MIC Streptococcus pyogenes (ID-3187) (Streptococcus sp.; [2]): 1 µg/mL (≈ 0.7 µM)
